Measured values as given in patent US9340577B2, “HLA binding motifs and peptides and their uses” (priority 1992, dated 2016).
Residues, ends and D or L forms follow the SMILES beside them. No end group written: not given here.

Columns and labels:
Assay in all cases: biochemical
Type in all cases: binding
HLA-A3.2 (A*0301) = HLA-A3.2 (A*0301) (Homo sapiens, UniProt P04439); details: for A*0301 binding: Table 11, binding value, no unit; for A3.2: Table 164, MAGE peptides, binding value to HLA-A3.2, no unit given
HLA-A11 (A*1101) = HLA-A11 (A*1101) (Homo sapiens, UniProt P04439, A114D/D185E/E176A/F33Y/L180Q/S129P/T187R); parameters: A11: unit not given here
A31 (A*3101) = A31 (A*3101) (Homo sapiens, UniProt P04439, A270S/D185E/E176V/E277Q/F33T/G231S/G80R/H175R/I121M/I218V/I322F/K168Q/L300P/L318F/M331R/P217A/Q94H/R138Q/T323A/T345S/T97I/V358M)
A*3301 = A*3301 (Homo sapiens, UniProt P04439, A270S/D185E/E176V/E277Q/E87N/F33T/G231S/H175R/I121M/I218V/I322F/K168Q/K210R/L300P/L318F/M331R/P217A/Q86R/Q94H/R138Q/T323A/T345S/T97I/V358M/Y195H)
A*6801 = A*6801 (Homo sapiens, UniProt P04439, A269V/D185E/E176V/E277Q/E87N/F33Y/G231S/I121M/I166T/I218V/L180W/L300P/L318F/N151K/P208A/P217A/Q86R/R169H/T345S)
HLA-A*0201 (HLA-A2.1) = HLA-A*0201 (HLA-A2.1) (Homo sapiens, UniProt P04439, D140Y/D185E/D98H/E176V/E277Q/G131W/G231S/I119V/I121R/I166T/I218V/L300P/L318F/N151K/N90K/P208A/P217A/Q86G/Q94H/R138H/R169H/T345S)

Row | Compound | IC50 (HLA-A3.2 (A*0301)) | IC50 (HLA-A11 (A*1101)) | IC50 (A31 (A*3101)) | IC50 (A*3301) | other results
1 | 34.0050 (RVCACPGR) [Peptide 34.0050] |  |  |  |  | A*0301 binding (HLA-A3.2 (A*0301)): 0.3500; A*1101 binding (HLA-A11 (A*1101)): 0.0490
2 | 34.0171 (SSBMGGMNK) [Peptide 34.0171] |  |  |  |  | A*0301 binding (HLA-A3.2 (A*0301)): 0.5440; A*1101 binding (HLA-A11 (A*1101)): 1.1000
3 | 34.0232 (RVCACPGRDK) [Peptide 34.0232] |  |  |  |  | A*0301 binding (HLA-A3.2 (A*0301)): 0.0190; A*1101 binding (HLA-A11 (A*1101)): 0.0250
4 | 34.0323 (RVCACPGRDRR) [Peptide 34.0323] |  |  |  |  | A*0301 binding (HLA-A3.2 (A*0301)): 0.0290; A*1101 binding (HLA-A11 (A*1101)): 0.0290
5 | CC[C@H](C)[C@H](NC(=O)[C@H](CS)NC(=O)[C@H](CCCNC(=N)N)NC(=O)[C@@H](NC(=O)[C@@H](N)CC(C)C)[C@@H](C)CC)C(=O)N[C@H](C(=O)N[C@@H](CS)C(=O)N[C@@H](CCC(N)=O)C(=O)N[C@@H](CCCCN)C(=O)O)[C@@H](C)CC [Peptide 88.0298] (H-LIRCIICQK-OH) | 445 nM | 252 nM | 639 nM | 834 nM | 
6 | CC[C@H](C)[C@H](N)C(=O)N[C@@H](CO)C(=O)N[C@@H](Cc1ccccc1)C(=O)N[C@@H](C)C(=O)NCC(=O)N[C@H](C(=O)N[C@H](C(=O)N[C@H](C(=O)N[C@@H](CCCCN)C(=O)O)[C@@H](C)O)C(C)C)[C@@H](C)CC [Peptide 1589.17] | 33 nM | 9.5 nM |  | 4370 nM | IC50 (A*6801): 31 nM
7 | AAEGVGAVSR [Peptide 9017.0188] | 16000 nM | 992 nM | 2680 nM | 4120 nM | 
8 | ALTALITPK [Peptide 9017.0099] | 17 nM | 16 nM | 439 nM |  | 
9 | ALTALITPKK [Peptide 9017.0230] | 44 nM | 6.8 nM | 7410 nM | > 20000 nM | 
10 | EVYDGREHSA |  |  |  |  | A2.1 (HLA-A*0201 (HLA-A2.1)): 0; A3.2 (HLA-A3.2 (A*0301)): <0.0002; A11 (HLA-A11 (A*1101)): 0
11 | F119.01 (MSLQRQFLR) [Peptide F119.01] |  |  |  |  | A*0301 binding (HLA-A3.2 (A*0301)): 0.2000; A*1101 binding (HLA-A11 (A*1101)): 0.7200
12 | F119.02 (LLGPGRPYR) [Peptide F119.02] |  |  |  |  | A*0301 binding (HLA-A3.2 (A*0301)): 0.0190; A*1101 binding (HLA-A11 (A*1101)): 0.0091
13 | FAFTDLTIVY [Peptide 78.0103] | > 20000 nM | > 20000 nM | > 20000 nM | > 20000 nM | 
14 | FLGALKSFLK [Peptide 88.0148] | 27 nM | 120 nM | 327 nM |  | 
15 | FLIIVLVMIA |  |  |  |  | A2.1 (HLA-A*0201 (HLA-A2.1)): 0.0003; A3.2 (HLA-A3.2 (A*0301)): 0.0093; A11 (HLA-A11 (A*1101)): 0.0030
16 | FTDLTIVYR [Peptide 78.0313] | > 20000 nM | 2660 nM | 602 nM | 585 nM | 

Row | Compound | IC50 (HLA-A3.2 (A*0301)) | IC50 (HLA-A11 (A*1101)) | IC50 (A31 (A*3101)) | IC50 (A*3301) | other results
17 | GLYYIHGNEK [Peptide 1589.40] | 17 nM | 18 nM | 141 nM | 4510 nM | 
18 | GVSIEWRQR [Peptide 9017.0087] | 13100 nM | 1220 nM | 335 nM | 2090 nM | 
19 | ISKQPLPQTR [Peptide 9017.0207] | > 20000 nM | > 20000 nM | 83 nM | 2580 nM | 
20 | IVFIEYRKIR [Peptide 9017.0245] | 4370 nM | 1470 nM | 12 nM | 312 nM | 
21 | KQFLQGVPK [Peptide 88.0390] | 32 nM | 17 nM | 44 nM | 5180 nM | 
22 | KQMSMSQWIK [Peptide 1587.09] | 49 nM | 17 nM | 50 nM |  | 
23 | KSLFGMSLMK [Peptide 1587.13] | 4.4 nM | 1.5 nM | 271 nM | > 20000 nM | 
24 | KVCSGVDYR [Peptide 1589.35] | > 20000 nM | 5170 nM |  | 5780 nM | 
25 | LALTALITPK [Peptide 9017.0228] | 88 nM | 6.6 nM | 1730 nM | > 20000 nM | 
26 | LNKMFCQLAR [Peptide 1556.49] | 11100 nM | 8880 nM |  |  | IC50 (A*6801): 1800 nM
27 | LQMALETLSK [Peptide 88.0214] | 559 nM | 22 nM | 10600 nM | > 20000 nM | 
28 | LQQTSLEMWR [Peptide 88.0228] | 13100 nM | 445 nM |  | > 20000 nM | 
29 | LVFGIDVKEA |  |  |  |  | A2.1 (HLA-A*0201 (HLA-A2.1)): 0.0002; A3.2 (HLA-A3.2 (A*0301)): <0.0002; A11 (HLA-A11 (A*1101)): 0
30 | NTKATLLYK [Peptide 88.0385] | 396 nM | 109 nM | 3820 nM | 168 nM | 
31 | QLALEALNK [Peptide 88.0424] | 166 nM | 155 nM | > 20000 nM | > 20000 nM | 
